Results taken from US5972894A, “Peptides having potassium channel opener activity” (Cytran, Inc., priority 1997, dated 1999).
Residues, ends and D or L forms follow the SMILES beside them.

System: ischemic myocardium
Assay: Inotropic function and arrhythmias of ischemic isolated rat heart during reperfusion
Settings: for Number of Ventricular Extrasystoles / Overall Duration of Ventricular Fibrillation / Overall Duration of Ventricular Tachycardia: 30-minute reperfusion
Excerpt: Rat hearts were surgically isolated from white random-bred rats weighing approximately 250 g. The isolated hearts were perfused with a standard oxygenated (95% O2 and 5% CO2) Krebs-Henseleit solution in a retrograde manner (i.e., according to Langendorff and using a constant perfusate pressure of 80 cm of water). The hearts maintained a steady spontaneous contraction rate. A latex balloon catheter connected to a pressure transducer (EMT-746, Siemens-Elema, Sweden) was inserted into the left ventricle of each heart to measure the inotropic function of the heart (as described in Example 3, above). The left ventricle pressure variation curve was recorded using a polygraph.
Stage I ("adaptation regimen") consisted of a 30-minute adaptation of the respective rat hearts to the perfusion regimen. The baseline parameters for the inotropic function of each heart were recorded to establish the preischemic values for the following measured parameters: (i) the systolic pressure in the left ventricle (Psyst. mm Hg); (ii) the diastolic pressure in the left ventricle (Pdiast. mm Hg); (iii) the evolving pressure (Pev. =Psyst. -Pdist. mm Hg); (iv) the maximal rate of increase of left ventricle pressure (+dp/dtmax mm Hg/sec); and (v) the maximal rate of decrease of left ventricle pressure (-dp/dtmax mm Hg/sec). In addition, the heart rate (HR) of each heart was determined from the recordings made of the variations in the left ventricle pressure over time. In Stage II ("ischemic simulation"), ischemia was induced in each heart by shutting off the supply of the perfusion solution to the heart. Approximately 30 minutes later, Stage III ("reperfusion regimen") was initiated by restarting the reperfusion and including in the perfusate solution a test or control substance at one of the following respective concentrations: a perfusate solution of a test substance comprised 0.06, 0.6, or 6.0 mg/l GE, or 0.06, 0.6, or 6.0 mg/l VT, respectively; a perfusate solution of the positive control substance comprised 14 mg/l inosine. Inosine is a nucleoside preparation that produces a favorable inotropic effect on both normal and ischemic myocardium while inducing no rhythm disturbances or acceleration of ischemic contracture development. Woollard et al., Cardiovasc. Res. 15: 659-67 (1981). Inosine was obtained from Sigma Chemical Company, USA (Cat. Code I-4125; lot number 81H0227). The negative control substance comprised reperfusion using a standard oxygenated Krebs-Henseleit solution.
For each heart, the inotropic function of the myocardium was evaluated by measuring the parameters (i) through (v), discussed above, and the heart rate. These six parameters were recorded continuously throughout the study (i.e., beginning with Stage I and continuing through Stage III). The recordings were analyzed at the following times: (a) immediately before beginning Stage II (that is, after the 30-minute Stage I adaptation period, but before stopping perfusion); and (b) at 1, 5, 10, 20, and 30 minutes into the Stage III reperfusion.
The frequency and duration of rhythm disturbances in the 30-minute Stage III reperfusion period were determined by measuring the following parameters: (i) the number of ventricular extrasystoles; (ii) the overall duration of ventricular tachycardias (in seconds); and (iii) the overall duration of ventricular fibrillation (in seconds). Each dose of the test substance was tested on nine isolated hearts.

## NCC(=O)N[C@@H](CCC(=O)O)C(=O)O [GE, L-Glycyl-L-Glutamic acid] (H-Gly-Glu-OH)
0.06 mg/l
  Number of Ventricular Extrasystoles: 182.2
  Overall Duration of Ventricular Fibrillation: 0 s
  Overall Duration of Ventricular Tachycardia: 2.1 s
0.06 mg/l, 1 min reperfusion
  Diastolic Pressure in Ischemic Left Ventricle (% of Preischemic Mean Value): 95.96%
  Evolving Pressure in Ischemic Left Ventricle (% of Preischemic Mean Value): 117.70%
  Heart Rate during Reperfusion (% of Preischemic Mean Value): 69.09%
  Maximal Rate of Increase of Left Ventricle Pressure (% of Preischemic Mean Value): 127.30%
  Maximal Rate of Left Ventricle Pressure Decrease (% of Preischemic Mean Value): 86.91%
  Systolic Pressure in Ischemic Left Ventricle (% of Preischemic Values): 115.11%
0.06 mg/l, 5 min reperfusion
  Diastolic Pressure in Ischemic Left Ventricle (% of Preischemic Mean Value): 124.53%
  Evolving Pressure in Ischemic Left Ventricle (% of Preischemic Mean Value): 92.58%
  Heart Rate during Reperfusion (% of Preischemic Mean Value): 91.94%
  Maximal Rate of Increase of Left Ventricle Pressure (% of Preischemic Mean Value): 98.87%
  Maximal Rate of Left Ventricle Pressure Decrease (% of Preischemic Mean Value): 89.27%
  Systolic Pressure in Ischemic Left Ventricle (% of Preischemic Values): 98.86%
0.06 mg/l, 10 min reperfusion
  Diastolic Pressure in Ischemic Left Ventricle (% of Preischemic Mean Value): 128.57%
  Evolving Pressure in Ischemic Left Ventricle (% of Preischemic Mean Value): 86.19%
  Heart Rate during Reperfusion (% of Preischemic Mean Value): 93.44%
  Maximal Rate of Increase of Left Ventricle Pressure (% of Preischemic Mean Value): 87.39%
  Maximal Rate of Left Ventricle Pressure Decrease (% of Preischemic Mean Value): 82.04%
  Systolic Pressure in Ischemic Left Ventricle (% of Preischemic Values): 89.79%
0.06 mg/l, 20 min reperfusion
  Diastolic Pressure in Ischemic Left Ventricle (% of Preischemic Mean Value): 134.92%
  Evolving Pressure in Ischemic Left Ventricle (% of Preischemic Mean Value): 74.40%
  Heart Rate during Reperfusion (% of Preischemic Mean Value): 72.87%
  Maximal Rate of Increase of Left Ventricle Pressure (% of Preischemic Mean Value): 87.39%
  Maximal Rate of Left Ventricle Pressure Decrease (% of Preischemic Mean Value): 75.11%
  Systolic Pressure in Ischemic Left Ventricle (% of Preischemic Values): 84.10%
0.06 mg/l, 30 min reperfusion
  Diastolic Pressure in Ischemic Left Ventricle (% of Preischemic Mean Value): 91.20%
  Evolving Pressure in Ischemic Left Ventricle (% of Preischemic Mean Value): 68.73%
  Heart Rate during Reperfusion (% of Preischemic Mean Value): 68.67%
  Maximal Rate of Increase of Left Ventricle Pressure (% of Preischemic Mean Value): 70.93%
  Maximal Rate of Left Ventricle Pressure Decrease (% of Preischemic Mean Value): 66.02%
  Systolic Pressure in Ischemic Left Ventricle (% of Preischemic Values): 72.11%
0.6 mg/l
  Number of Ventricular Extrasystoles: 168.5
  Overall Duration of Ventricular Fibrillation: 44.3 s
  Overall Duration of Ventricular Tachycardia: 22.2 s
0.6 mg/l, 1 min reperfusion
  Diastolic Pressure in Ischemic Left Ventricle (% of Preischemic Mean Value): 69.70%
  Evolving Pressure in Ischemic Left Ventricle (% of Preischemic Mean Value): 71.90%
  Heart Rate during Reperfusion (% of Preischemic Mean Value): 52.28%
  Maximal Rate of Increase of Left Ventricle Pressure (% of Preischemic Mean Value): 71.21%
  Maximal Rate of Left Ventricle Pressure Decrease (% of Preischemic Mean Value): 53.56%
  Systolic Pressure in Ischemic Left Ventricle (% of Preischemic Values): 74.01%
0.6 mg/l, 5 min reperfusion
  Diastolic Pressure in Ischemic Left Ventricle (% of Preischemic Mean Value): 113.42%
  Evolving Pressure in Ischemic Left Ventricle (% of Preischemic Mean Value): 83.73%
  Heart Rate during Reperfusion (% of Preischemic Mean Value): 85.30%
  Maximal Rate of Increase of Left Ventricle Pressure (% of Preischemic Mean Value): 84.14%
  Maximal Rate of Left Ventricle Pressure Decrease (% of Preischemic Mean Value): 79.56%
  Systolic Pressure in Ischemic Left Ventricle (% of Preischemic Values): 90.02%
0.6 mg/l, 10 min reperfusion
  Diastolic Pressure in Ischemic Left Ventricle (% of Preischemic Mean Value): 95.24%
  Evolving Pressure in Ischemic Left Ventricle (% of Preischemic Mean Value): 86.63%
  Heart Rate during Reperfusion (% of Preischemic Mean Value): 77.07%
  Maximal Rate of Increase of Left Ventricle Pressure (% of Preischemic Mean Value): 88.69%
  Maximal Rate of Left Ventricle Pressure Decrease (% of Preischemic Mean Value): 87.20%
